According to ChEMBL document CHEMBL1136073, “2,4-Dicarboxy-pyrroles as selective non-competitive mGluR1 antagonists: further characterization of 3,5-dimethyl pyrrole-2,4-dicarboxylic acid 2-propyl ester 4-(1,2,2-trimethyl-propyl) ester and structure-activity relationships” (Bioorg Med Chem Lett, 2003):

Each molecule was assayed against T1, Metabotropic glutamate receptor 1 (Rattus norvegicus, UniProt P23385) (assay: In vitro inhibition of rat metabotropic glutamate receptor 1 in CHO cells using the CDP-DAG accumulation method.).
Assay type: cell-based; call rule not given here

T1 sequence (P23385 whole entry): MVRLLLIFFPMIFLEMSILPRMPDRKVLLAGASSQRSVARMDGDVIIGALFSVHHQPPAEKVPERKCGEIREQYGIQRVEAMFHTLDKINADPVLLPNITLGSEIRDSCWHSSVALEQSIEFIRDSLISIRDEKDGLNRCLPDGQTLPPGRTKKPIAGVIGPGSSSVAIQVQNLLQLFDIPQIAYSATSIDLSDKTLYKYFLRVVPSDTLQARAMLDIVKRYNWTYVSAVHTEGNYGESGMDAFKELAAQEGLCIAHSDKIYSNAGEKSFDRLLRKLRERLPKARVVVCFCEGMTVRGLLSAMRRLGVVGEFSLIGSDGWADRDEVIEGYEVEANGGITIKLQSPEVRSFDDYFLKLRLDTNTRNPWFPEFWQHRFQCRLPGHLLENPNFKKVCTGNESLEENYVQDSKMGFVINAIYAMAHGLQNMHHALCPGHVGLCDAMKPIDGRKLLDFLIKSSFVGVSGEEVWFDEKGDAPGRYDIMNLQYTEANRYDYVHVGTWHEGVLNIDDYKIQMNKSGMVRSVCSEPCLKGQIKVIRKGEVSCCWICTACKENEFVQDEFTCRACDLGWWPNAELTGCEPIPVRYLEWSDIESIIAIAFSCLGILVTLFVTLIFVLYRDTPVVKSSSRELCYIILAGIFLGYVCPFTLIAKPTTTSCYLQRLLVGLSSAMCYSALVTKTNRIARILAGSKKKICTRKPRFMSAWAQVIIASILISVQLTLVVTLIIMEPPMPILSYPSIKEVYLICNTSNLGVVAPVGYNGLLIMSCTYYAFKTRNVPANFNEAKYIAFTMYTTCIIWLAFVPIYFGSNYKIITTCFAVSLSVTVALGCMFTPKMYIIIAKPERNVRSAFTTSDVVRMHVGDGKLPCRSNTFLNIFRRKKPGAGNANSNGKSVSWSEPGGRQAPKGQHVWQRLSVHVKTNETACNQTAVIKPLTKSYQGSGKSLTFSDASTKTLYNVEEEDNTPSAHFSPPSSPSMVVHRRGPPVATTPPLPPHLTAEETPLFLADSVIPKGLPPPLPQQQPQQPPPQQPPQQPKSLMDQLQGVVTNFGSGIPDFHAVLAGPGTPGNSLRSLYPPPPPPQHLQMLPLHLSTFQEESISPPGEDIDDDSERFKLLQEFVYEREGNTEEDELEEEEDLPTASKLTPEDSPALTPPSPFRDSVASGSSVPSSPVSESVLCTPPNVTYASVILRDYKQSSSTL

**Q.** `CCCOC(=O)c1[nH]c(C(=O)OC)c(C(=O)OC(C)(C)C)c1C` was tested. Which IC50 did it give?
**A.** The IC50 was 3200 nM.

**Q.** How did the IC50 turn out when `Cc1c(C(=O)OC(C)(C)C)c[nH]c1C(=O)OCc1ccco1` was run?
**A.** The IC50 was 1200 nM.

**Q.** For `Cc1c(C(=O)OC(C)C(C)(C)C)c[nH]c1C(=O)Oc1c(F)c(F)c(F)c(F)c1F` (stereo unspecified), which IC50 is on record?
**A.** The IC50 was 160 nM.

**Q.** How did the IC50 turn out when `Cc1c(C(=O)OC(C)C(C)(C)C)c[nH]c1C(=O)Oc1cccnc1` (stereo unspecified) was run?
**A.** The IC50 was 720 nM.

**Q.** With `Cc1c(C(=O)OC(C)C(C)(C)C)c[nH]c1C(=O)Oc1ccncn1` (stereo unspecified) as the molecule, how does the IC50 read?
**A.** Its IC50 is 1450 nM.

**Q.** For `CCCOC(=O)c1[nH]c(C(=O)Sc2ccccn2)c(C(=O)OC(C)(C)C)c1C`, which IC50 is on record?
**A.** The IC50 was 3200 nM.

**Q.** `CCOC(=O)c1[nH]cc(C(=O)OC(C)(C)C)c1C` was tested. Which IC50 did it give?
**A.** Its IC50 is 340 nM.

**Q.** With `CCCOC(=O)c1[nH]c(C=O)c(C(=O)OC(C)(C)C)c1C` as the molecule, how does the IC50 read?
**A.** Its IC50 is 2000 nM.

**Q.** How did the IC50 turn out when `CCCOC(=O)c1[nH]c(C(=O)NCC2CC2)c(C(=O)OC(C)(C)C)c1C` was run?
**A.** The IC50 was 2500 nM.

**Q.** For `CCCOC(=O)c1[nH]c(C)c(C(=O)OC(C)C(C)(C)C)c1C` (stereo unspecified), which IC50 is on record?
**A.** Its IC50 is 15800 nM.

**Q.** How did the IC50 turn out when `Cc1c(C(=O)OC(C)(C)C)c[nH]c1C(=O)OC(C)(C)C` was run?
**A.** The IC50 was 100 nM.

**Q.** Which IC50 does the source give for `CCCOC(=O)c1[nH]c(COC(C)=O)c(C(=O)OC(C)(C)C)c1C` here?
**A.** Its IC50 is 2700 nM.

**Q.** `CCCOC(=O)c1[nH]cc(C(=O)OC(C)(C)C)c1C` was tested. Which IC50 did it give?
**A.** Its IC50 is 75 nM.

**Q.** For `CCCOC(=O)c1[nH]c(CO)c(C(=O)OC(C)(C)C)c1C`, which IC50 is on record?
**A.** The IC50 was 7900 nM.

**Q.** Which IC50 does the source give for `CCN1CCC(OC(=O)c2[nH]cc(C(=O)OC(C)C(C)(C)C)c2C)C1` (stereo unspecified) here?
**A.** Its IC50 is 260 nM.

**Q.** Which IC50 does the source give for `Cc1c(C(=O)OC(C)(C)C)c[nH]c1C(=O)Sc1ccccn1` here?
**A.** The IC50 was 3000 nM.

**Q.** With `C=CCOC(=O)Cn1c(C)c(C(=O)OC(C)(C)C)c(C)c1C(=O)OCCC` as the molecule, how does the IC50 read?
**A.** Its IC50 is 12600 nM.

**Q.** For `CCCOC(=O)c1[nH]c(Cl)c(C(=O)OC(C)C(C)(C)C)c1C` (stereo unspecified), which IC50 is on record?
**A.** Its IC50 is 160 nM.

**Q.** How did the IC50 turn out when `Cc1c(C(=O)OC(C)C(C)(C)C)c[nH]c1C(=O)OC(C)CN(C)C` (stereo unspecified) was run?
**A.** Its IC50 is 390 nM.

**Q.** How did the IC50 turn out when `CCCOC(=O)c1c(C)c(C(=O)OC(C)(C)C)c(C)n1CCCO` was run?
**A.** Its IC50 is 5800 nM.

**Q.** Which IC50 does the source give for `Cc1c(C(=O)OC(C)C(C)(C)C)c[nH]c1C(=O)OC(C)(C)C` (stereo unspecified) here?
**A.** The IC50 was 17 nM.

**Q.** For `Cc1c(C(=O)OC(C)(C)C)c[nH]c1C(=O)OCC1CC1`, which IC50 is on record?
**A.** Its IC50 is 48 nM.

**Q.** Which IC50 does the source give for `CCCOC(=O)c1[nH]cc(C(=O)OC(C)C(C)(C)C)c1C` (stereo unspecified) here?
**A.** Its IC50 is 4 nM.

The molecules below were run against T1, Metabotropic glutamate receptor 1 (assay: In vitro inhibitory concentration required against rat mGluR1a in CHO cells using the CDP-DAG accumulation method).
Assay type: cell-based

**Q.** For `CCCOC(=O)c1c(C)c(C(=O)OC(C)(C)C)c(C)n1C(=O)OC(C)(C)C`, which IC50 is on record?
**A.** Its IC50 is 2300 nM.

**Q.** For `CCCOC(=O)c1c(C)c(C(=O)OC(C)(C)C)c(C)n1C`, which IC50 is on record?
**A.** The IC50 was 1000 nM.

Each molecule was assayed against T1, Metabotropic glutamate receptor 1 (assay: In vitro inhibitory concentration required against rat mGluR1a in CHO cells using the CDP-DAG accumulation method: Not active uM).
Assay type: cell-based

**Q.** How did the IC50 turn out when `CCCOC(=O)c1c(C)c(C(=O)OC(C)(C)C)c(C)n1CCN1CCOCC1` was run?
**A.** The IC50 was “Not Active”.

**Q.** With `C=CCN1CCN(CCn2c(C)c(C(=O)OC(C)(C)C)c(C)c2C(=O)OCCC)CC1` as the molecule, how does the IC50 read?
**A.** Its IC50 is “Not Active”.

What follows are molecules tested against T1, Metabotropic glutamate receptor 1 (assay: In vitro inhibition of rat Metabotropic glutamate receptor 1 in CHO cells using the CDP-DAG accumulation method: Not active uM).
Assay type: cell-based

**Q.** For `CCCOC(=O)c1[nH]c(C(=O)O)c(C(=O)OC(C)(C)C)c1C`, which IC50 is on record?
**A.** Its IC50 is “Not Active”.

**Q.** `Cc1c(C(=O)OC(C)(C)C)c[nH]c1C(=O)O` was tested. Which IC50 did it give?
**A.** Its IC50 is “Not Active”.

**Q.** For `CCCOC(=O)c1c(C)c(C(=O)OC(C)(C)C)c(C)n1CCO[Si](c1ccccc1)(c1ccccc1)C(C)(C)C`, which IC50 is on record?
**A.** The IC50 was “Not Active”.

**Q.** Which IC50 does the source give for `CCCOC(=O)c1c(C)c(C(=O)OC(C)(C)C)c(C)n1CC(=O)N(C)C` here?
**A.** The IC50 was “Not Active”.

**Q.** `CCCOC(=O)c1[nH]c(CNCc2ccccc2)c(C(=O)OC(C)(C)C)c1C` was tested. Which IC50 did it give?
**A.** Its IC50 is “Not Active”.

**Q.** `CCCOC(=O)c1c(C)c(C(=O)OC(C)(C)C)c(C)n1CCCO[Si](c1ccccc1)(c1ccccc1)C(C)(C)C` was tested. Which IC50 did it give?
**A.** The IC50 was “Not Active”.

**Q.** For `CCCOC(=O)c1[nH]c(CN)c(C(=O)OC(C)(C)C)c1C`, which IC50 is on record?
**A.** The IC50 was “Not Active”.

**Q.** For `CCCOC(=O)c1c(C)c(C(=O)OC(C)(C)C)c(C)n1CN1CCCCC1`, which IC50 is on record?
**A.** The IC50 was “Not Active”.

**Q.** How did the IC50 turn out when `CCCOC(=O)c1c(C)c(C(=O)OC(C)(C)C)c(C)n1CC(=O)O` was run?
**A.** Its IC50 is “Not Active”.
